{"source": "ChEMBL document CHEMBL1121896", "about": "“Potential histamine H2-receptor blockers. 3- and 2-indole derivatives as immobile analogues of tautomeric forms of cimetidine” (J Med Chem, 1981)", "key": {"[1]": {"target": "Histamine H2 receptor (Cavia porcellus) (UniProt P47747)", "sequence (P47747 whole entry)": "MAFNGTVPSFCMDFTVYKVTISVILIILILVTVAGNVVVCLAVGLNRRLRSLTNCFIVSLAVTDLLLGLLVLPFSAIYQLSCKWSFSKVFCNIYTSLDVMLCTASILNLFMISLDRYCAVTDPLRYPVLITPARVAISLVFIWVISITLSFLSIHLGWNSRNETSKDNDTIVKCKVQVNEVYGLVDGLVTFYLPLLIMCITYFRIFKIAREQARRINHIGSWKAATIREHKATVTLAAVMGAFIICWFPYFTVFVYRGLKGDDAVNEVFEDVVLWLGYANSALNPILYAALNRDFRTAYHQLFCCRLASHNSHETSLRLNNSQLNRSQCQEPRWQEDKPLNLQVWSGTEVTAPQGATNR", "assay": "Ratio of potency (3*10e-5M) to that of agonist for histamine H2 receptor, in an assay for guinea pig atria chronotropic response", "assay_type": "functional"}, "[2]": {"target": "Histamine H2 receptor (Cavia porcellus) (UniProt P47747)", "assay": "Competitive antagonism of compound at histamine H2 receptor compared to 4-methylhistamine induced chronotropic response in guinea pig atria; + Potency ratio greater than 1.0", "assay_type": "functional"}, "[3]": {"target": "Histamine H2 receptor (Cavia porcellus) (UniProt P47747)", "assay": "Competitive antagonism of compound at histamine H2 receptor compared to 4-methylhistamine induced chronotropic response in guinea pig atria; nonparallel shift in dose response curve", "assay_type": "functional", "details": "filed as antagonist"}, "[4]": {"target": "Histamine H2 receptor (Cavia porcellus) (UniProt P47747)", "assay": "Competitive antagonism of compound at histamine H2 receptor compared to 4-methylhistamine induced chronotropic response in guinea pig atria expressed as potency ratio; Not significantly greater than 1.0 (Inactive)", "assay_type": "functional"}, "[5]": {"target": "Histamine H2 receptor (Cavia porcellus) (UniProt P47747)", "assay": "Ratio of potency (3*10e-5M) to that of agonist for Histamine H2 receptor, in an assay for guinea pig atria chronotropic response", "assay_type": "functional"}, "[6]": {"target": "Histamine H2 receptor (Cavia porcellus) (UniProt P47747)", "assay": "Competitive antagonism of compound at histamine H2 receptor compared to 4-methylhistamine as effect on resting heart rate in guinea pig atria expressed as potency ratio; Inactive", "assay_type": "functional, tissue-based"}, "[7]": {"target": "Histamine H2 receptor (Cavia porcellus) (UniProt P47747)", "assay": "Competitive antagonism of compound at histamine H2 receptor compared to 4-methylhistamine as effect on resting heart rate in guinea pig atria expressed as potency ratio; (Inactive)", "assay_type": "functional, tissue-based"}}, "note": "Activity calls are given as the source filed them. The rule behind the calls is not given here."}
{"smiles": "C/N=C(\\S)NCCSCc1cc2ccccc2[nH]1", "values": [{"measurement": "Potency ratio", "setting": "[1]", "result": 3.35}, {"measurement": "Antagonism", "setting": "[2]", "result": "> 1"}]}
{"smiles": "CN/C(=N\\CCSCc1nc[nH]c1C)NC#N", "values": [{"measurement": "Potency ratio", "setting": "[1]", "result": 36.8}, {"measurement": "Antagonism", "setting": "[2]", "result": "> 1"}]}
{"smiles": "CS/C(=N\\CCSCc1cc2ccccc2[nH]1)NC#N", "values": [{"measurement": "Potency ratio", "setting": "[1]", "result": 6.04}, {"measurement": "Antagonism", "setting": "[3]", "result": "Non-competitive antagonist"}]}
{"smiles": "CS/C(=N\\CCSCc1c[nH]c2ccccc12)NC#N", "values": [{"measurement": "Potency ratio", "setting": "[1]", "result": 2.56}, {"measurement": "Antagonism", "setting": "[2]", "result": "> 1"}]}
{"smiles": "C/N=C(\\NC#N)NCCSCc1c[nH]c2ccccc12", "values": [{"measurement": "Potency ratio", "setting": "[1]", "result": 0.84}, {"measurement": "Antagonism", "setting": "[4]", "result": "inactive"}]}
{"smiles": "S=C(NCCSCc1c[nH]c2ccccc12)Nc1ccccc1", "values": [{"measurement": "Potency ratio", "setting": "[5]", "result": 1.16}, {"measurement": "Antagonism", "setting": "[4]", "result": "inactive"}]}
{"smiles": "S=C(NCCSCc1cc2ccccc2[nH]1)Nc1ccccc1", "values": [{"measurement": "Potency ratio", "setting": "[1]", "result": 2.54}, {"measurement": "Antagonism", "setting": "[6]", "result": "inactive"}]}
{"smiles": "C/N=C(\\NC#N)NCCSCc1cc2ccccc2[nH]1", "values": [{"measurement": "Potency ratio", "setting": "[1]", "result": 1.76}, {"measurement": "Antagonism", "setting": "[7]", "result": "inactive"}]}
{"smiles": "C/N=C(\\S)NCCSCc1c[nH]c2ccccc12", "values": [{"measurement": "Potency ratio", "setting": "[1]", "result": 1.06}, {"measurement": "Antagonism", "setting": "[4]", "result": "> 1"}]}
